PubChem BioAssay AID1959 (Broad Institute, 2009)
Calls of active or inactive are those of the source.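 The calls were made as follows: active = growth-inhibition EC50 no more than tenfold above the top tested dose; inconclusive = flat fit between 30% and 70% inhibition, or unreliable fit; inactive = EC50 more than tenfold above the top tested dose.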

System: E. coli NEB5alpha growth, BacTiter-Glo luminescence, 4 h
Experiment: antibacterial activity against E. coli NEB5alpha – luminescence, counter-screen for MEX-5/POS-1 RNA-binding inhibitor project, dose response (AID 1959);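 also: pUC19-transformed ampicillin-resistant cells grown in LB with ampicillin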

| Structure (SMILES) | EC50 |
| --- | --- |
| CCN1C(=O)NC(=O)/C(=C\c2cn(CC(=O)O)c3ccccc23)C1=O | > 11 µM (inactive) |
| Nc1c(C(=O)c2ccc(Cl)cc2)sc2nsc(SCCN3CCOCC3)c12 | > 11 µM (inactive) |
| CCOC(=O)CSc1nc2ccc(Nc3nc(N4CCOCC4)nc(N4CCOCC4)n3)cc2s1 | > 11 µM (inactive) |
| O=C(NCCF)C1Nc2ccc(OC(F)(F)F)cc2C2C=CCC12 (stereo not drawn) | > 11 µM (inactive) |
| Cc1cc(C(=O)O)ccc1-n1c(C)cc(/C=C2\SC(=O)NC2=O)c1C | > 11 µM (inactive) |
| Cc1cc([N+](=O)[O-])nn1CC(=O)NNC(=S)Nc1ccc([N+](=O)[O-])cc1 | > 11 µM (inactive) |
| COc1cccc(NC(=O)C(=O)c2cn(CC(=O)N3CCOCC3)c3ccccc23)c1 | > 11 µM (inactive) |
| COc1c(/C=C2/C(=O)NC(=O)N(C)C2=O)c(CCN(C)C(=O)c2ccccc2)cc2c1OCO2 | > 11 µM (inactive) |
| Cc1cc(=O)nc2c3ccccc3n(CC(=O)Nc3ccccc3Br)n12 | > 11 µM (inactive) |
| COc1ccc(-n2c(C)cc(/C=C3\SC(=S)N(Cc4ccco4)C3=O)c2C)cc1 | > 11 µM (inactive) |
| N=c1n(CC(=O)c2ccc([N+](=O)[O-])cc2)c2ccccc2n1Cc1ccc(Cl)cc1 | > 11 µM (inactive) |
| Cc1ccc(/C=C(\C#N)C(=O)Nc2c(C)cccc2C)s1 | > 11 µM (inactive) |
| CN1C=C/C(=C\c2cc[n+](C)c3ccccc23)c2ccccc21 | > 11 µM (inactive) |
| COc1ccc(/C=C2\CCCC(C(=O)C(F)(F)F)=C2O)cc1 | > 11 µM (inactive) |
| CC(=O)Oc1cc2cccc(OC(C)=O)c(=O)c2c(OC(C)=O)c1OC(C)=O | > 11 µM (inactive) |
| O=C(N/N=C/c1c(O)n(CCc2ccccc2)c(=O)[nH]c1=O)c1ccccc1O | > 11 µM (inactive) |
| Cc1cc(/C=C2\C(=O)NC(=O)N(c3ccc(F)cc3)C2=O)c(C)n1-c1ccc(C(=O)O)cc1 | > 11 µM (inactive) |
| COc1cc2c3nnc(-c4ccccc4)c-3cn(Cc3ccccc3F)c2cc1OC | > 11 µM (inactive) |
| COc1ccc(C2C(C#N)=C(N)OC3=C2C(=O)CC(C)(C)C3)cc1Cn1cc([N+](=O)[O-])cn1 (stereo not drawn) | > 11 µM (inactive) |
| O=c1oc2ccc(Cl)cc2nc1/C=C(\O)c1cccs1 | > 11 µM (inactive) |
| Brc1cc2c(cc1C1Nc3ccccc3C3C=CCC31)OCO2 (stereo not drawn) | > 11 µM (inactive) |
| CCC(NC(C)C)C(O)c1ccc(O)c(O)c1 (stereo not drawn) | > 11 µM (inactive) |
| O=C(O)c1cc(-c2ccc(/C=C3\NC(=O)N(c4ccc(Cl)cc4)C3=O)o2)ccc1Cl | > 11 µM (inactive) |
| CCOC(=O)N1CCC(NC(=O)C(Cc2ccccc2)NC(=O)C2CCCCC2)CC1 (stereo not drawn) | > 11 µM (inactive) |

| Structure (SMILES) | EC50 |
| --- | --- |
| CSc1ccc(C2C(C(=O)c3ccco3)=C(O)C(=O)N2c2nnc(SC)s2)cc1 (stereo not drawn) | > 11 µM (inactive) |
| O=C1CNC(=S)N1CCc1ccc(O)c(O)c1 | > 11 µM (inactive) |
| Oc1cc2c(cc1O)C(c1ccccc1)CNCC2 (stereo not drawn) | > 11 µM (inactive) |
| Cc1cccc(N2C(=O)/C(=C/c3ccc(CN(CCC#N)S(C)(=O)=O)o3)C(=O)NC2=S)c1 | > 11 µM (inactive) |
| Cc1cccn2c(=O)c3cc(C(=O)NC4CCCCC4)c(=N)n(Cc4ccccc4)c3nc12 | > 11 µM (inactive) |
| CC(C)(C)OC(=O)NC(Cc1ccccc1)C(=O)N1CCC(C(=O)NCC(=O)Nc2ccc(F)cc2)CC1 (stereo not drawn) | > 11 µM (inactive) |
| O=C(O)c1cccc(-n2cccc2/C=C2/NC(=O)N(Cc3ccccc3F)C2=O)c1 | > 11 µM (inactive) |
| COc1ccc(/C=C/c2nc3sc4c(c3c(=O)o2)CCC4)cc1 | > 11 µM (inactive) |
| O=C(N/N=C\c1cc([N+](=O)[O-])ccc1N1CCCC1)c1ccccn1 | > 11 µM (inactive) |
| CN1C(=O)C(=Cc2ccc(Sc3ccccc3)o2)C(=O)N(C)C1=S | > 11 µM (inactive) |
| Cc1cc(/C=C2\C(=O)NC(=O)N(c3cccc(F)c3)C2=O)c(C)n1-c1ccc(C(=O)O)c(Cl)c1 | > 11 µM (inactive) |
| Cc1cc(C)c2c(=O)[nH]c(=O)n(Cc3ccccc3)c2n1 | > 11 µM (inactive) |
| COC(=O)CCC(=O)OC1(C)C(=O)C=C2C=C(C3CC3)OC=C2C1=O (stereo not drawn) | > 11 µM (inactive) |
| N#CC1=C(N)C(C#N)(C#N)C(c2cccnc2)C2COCC=C12 (stereo not drawn) | > 11 µM (inactive) |
| COc1c(O)cccc1[C@H](O)C1CCN(CCc2ccc(F)cc2)CC1 | > 11 µM (inactive) |
| CCCC1Nc2ccc(C(=O)O)cc2C2C=CCC12 (stereo not drawn) | > 11 µM (inactive) |
| CCOC(=O)c1cc(C(=O)OCC)cc(-n2c(C)cc(C(=O)CN3CCOCC3)c2C)c1 | > 11 µM (inactive) |
| O=C(N/N=C/c1c(O)n(Cc2ccco2)c(=O)[nH]c1=O)c1ccccc1O | > 11 µM (inactive) |
| CNc1c(N)n(Cc2ccccc2)c(=O)[nH]c1=O | > 11 µM (inactive) |
| CCN(CC)C(=O)c1sc2nc(-c3cccs3)cc(-c3cccs3)c2c1N | > 11 µM (inactive) |
| CCCCC1=CC2=CC(=O)C(C)(OC(=O)CCC(=O)OC)C(=O)C2=CO1 (stereo not drawn) | > 11 µM (inactive) |
| Cc1ccc(C(=O)N/C(=C\c2ccc(-c3ccccc3[N+](=O)[O-])o2)C(=O)NCCCN(C)C)cc1 | > 11 µM (inactive) |
| N#C/C(=C/c1cccn1-c1cccc(C(=O)O)c1)c1ccc(Cl)cc1 | > 11 µM (inactive) |
| COC(=O)c1ccc(-n2c(CCC(=O)O)ccc2-c2ccc(C)cc2)cc1 | > 11 µM (inactive) |

| Structure (SMILES) | EC50 |
| --- | --- |
| COc1ccc(C(=O)NC2(C(F)(F)F)C(=O)N(Cc3ccco3)C3=C2C(=O)CC(C)(C)C3)cc1OC (stereo not drawn) | > 11 µM (inactive) |
| CCCC(C)NC(=O)c1ccc(C2SCC(=O)N2Cc2ccco2)cc1 (stereo not drawn) | > 11 µM (inactive) |
| O=C(NNC(=O)c1cnccn1)c1cccc([N+](=O)[O-])c1 | > 11 µM (inactive) |
| CC(C)C1Nc2ccc(S(N)(=O)=O)cc2C2C=CCC21 (stereo not drawn) | > 11 µM (inactive) |
| O=C(/C=C/Nc1ccc([N+](=O)[O-])cc1)c1ccc(Br)cc1 | > 11 µM (inactive) |
| CCOC(=O)N1CCN(C2=Nc3cccc4cccc2c34)CC1 | > 11 µM (inactive) |
| CCOc1cc(/C=C2\C(=O)NC(=O)N(CCc3ccc(F)cc3)C2=O)ccc1O | > 11 µM (inactive) |
| COc1cccc(C(=O)NNc2nc(C)cc(C)n2)c1 | > 11 µM (inactive) |
| CCN(CC)c1ccc(/C=N/NC(=O)c2ccco2)c(O)c1 | > 11 µM (inactive) |
| Cc1ccc(N2C(=O)/C(=C/c3ccc(CN(CCC#N)S(C)(=O)=O)o3)C(=O)NC2=S)cc1C | > 11 µM (inactive) |
| O=C(O)c1ccc(-c2ccc(/C=C3\NC(=O)N(Cc4ccc(Cl)cc4)C3=O)o2)cc1Cl | > 11 µM (inactive) |
| Clc1cccc(CSc2nc3ccncc3[nH]2)c1 | > 11 µM (inactive) |
| CCCn1nc(C(=O)Nc2ccc3nc(C)sc3c2)c2ccccc2c1=O | > 11 µM (inactive) |
| Nc1nnc(C(=O)c2ccccc2N)s1 | > 11 µM (inactive) |
| Cc1ccc(C(=O)O)cc1-n1c(C)cc(C=O)c1C | > 11 µM (inactive) |
| CCN(CC)CCN=Cc1c(O)n(Cc2ccccc2)c(=O)[nH]c1=O | > 11 µM (inactive) |
| CCOC(=O)C1Nc2ccc(Br)cc2C2C=CCC12 (stereo not drawn) | > 11 µM (inactive) |
| Nc1ccc2nc(-c3ccccc3)c(-c3ccccc3)nc2c1 | > 11 µM (inactive) |
| COc1cc2c(cc1OC)C(c1ccc(-c3ccc(Cl)cc3Cl)o1)=NCC2 | > 11 µM (inactive) |
| CN(C)c1ccc(O)c2c1CC1CC3C(N(C)C)C(=O)C(C(N)=O)=C(O)[C@@]3(O)C(=O)C1=C2O (stereo partly drawn) | 6.49 µM |
| CC1=N/C(=C/c2ccco2)C(=O)O1 | > 11 µM (inactive) |
| C=CCOc1cccc(C2C(C(=O)c3cc4ccccc4o3)=C(O)C(=O)N2c2cc(C)on2)c1 (stereo not drawn) | > 11 µM (inactive) |
| Cc1nc(S/C(=C/c2ccc(-c3ccc(Cl)cc3)o2)C(=O)O)n[nH]1 | > 11 µM (inactive) |
| CN1CCN(C2=C(Cl)C(=O)C(c3cnc(N4CCCCC4)s3)=C(Cl)C2=O)CC1 | > 11 µM (inactive) |

| Structure (SMILES) | EC50 |
| --- | --- |
| O=C1NC(=O)N(c2ccccc2)C(=O)/C1=C/c1coc2ccc(O)cc2c1=O | > 11 µM (inactive) |
| O=c1[nH]c2ccc([N+](=O)[O-])cc2nc1/C=C(\O)c1ccccc1 | > 11 µM (inactive) |
| Cc1cc(/C=C2/C(=O)NC(=O)N(Cc3ccco3)C2=O)c(C)n1-c1ccc(C(=O)O)cc1 | > 11 µM (inactive) |
| COc1ccc(C(=O)/C=C2\NCC3c4ccccc4CCN3C2=O)cc1 (stereo not drawn) | > 11 µM (inactive) |
| COc1cc2c(cc1C1C(C#N)=C(N)OC3=C1C(=O)CC(C)(C)C3)OCO2 (stereo not drawn) | > 11 µM (inactive) |
| Cc1cc(/C=N/Nc2ccc([N+](=O)[O-])cn2)c(C)n1-c1ccc(C(=O)O)cc1 | > 11 µM (inactive) |
| Cc1ccc(C)c(N(C)C(=O)c2coc(=O)c3ccccc23)c1 | > 11 µM (inactive) |
| CC1CCc2nn(CC(=O)NCCN3CCCCC3C)cc2C1 (stereo not drawn) | > 11 µM (inactive) |
| CCc1cc[n+](-c2nc([O-])sc2C=O)cc1 | > 11 µM (inactive) |
| Cc1nn(C)c(C)c1CN(C)C(=O)C1c2ccccc2Oc2ccccc21 | > 11 µM (inactive) |
| CC(=O)c1cc(NC(=O)c2cccc(C(F)(F)F)c2)c(=O)oc1/C=C/N(C)C | > 11 µM (inactive) |
| O=C(/C=C/c1ccc([N+](=O)[O-])s1)N1CCCC1 | > 11 µM (inactive) |
| CCOc1ccc2ccccc2c1C1NC(=O)N(C)C(C)=C1C(=O)OCCOC (stereo not drawn) | > 11 µM (inactive) |
| CCOC(=O)c1c(/N=C/c2c(O)n(-c3cccc(C)c3)c(=O)[nH]c2=O)sc2c1CCCC2 | > 11 µM (inactive) |
| N#Cc1c(NC(=O)/C=C/C(=O)O)sc2c1CCN(Cc1ccccc1)C2 | > 11 µM (inactive) |
| COC(=O)C1=C(C)N(Cc2ccccc2)C(=NCC(C)C)N[C@H]1c1ccccc1 | > 11 µM (inactive) |
| CCCC[n+]1ccn(C2=C([O-])c3ccccc3C(=O)/C2=N\S(=O)(=O)c2ccc(Cl)cc2)c1 | > 11 µM (inactive) |
| Cc1ccc(S(=O)(=O)/N=C2\C=C(Nc3cccc(C(=O)O)c3)C(=O)c3ccccc32)c(C)c1 | > 11 µM (inactive) |
| Cc1ccc(NC(=S)c2ccc3ccccc3n2)c(C)c1 | > 11 µM (inactive) |
| O=C(CCN1C(=O)/C(=C\C=C\c2ccccc2)SC1=S)Nc1ccc(C(=O)O)cc1 | > 11 µM (inactive) |
| Cc1sc(-n2c(C)cc(C=C3C(=O)NC(=O)NC3=O)c2C)c(C#N)c1C | > 11 µM (inactive) |
